Results published in patent US6458758B1, “Compositions and methods utilizing nitroxides in combination with biocompatible macromolecules” (Synzyme Technologies, Inc., priority 1993, dated 2002).
Where two headings read alike, the source gives them in different places.

Tests used:
[1] = Superoxide oxidase / dismutase activity of nitroxide-labelled hemoglobin on storage (ESR); format: biochemical
Text: For example, an o-raffinose polymerized hemoglobin solution that has been labelled with 4-amino-TEMPO is stored in its oxygenated state in a sealed glass container (FIG. 1A). In such a state, the rate of superoxide anion and met-hemoglobin formation in solution is sufficiently rapid that the conversion of the nitroxide to its hydroxylamine derivatives may be conveniently monitored (See Equation [4] and compare FIGS. 1A and 1B). Equation 4 represents that the conversion of nitroxide to its diamagnetic hydroxyl derivative is coupled to the conversion of the superoxide anion back to molecular oxygen. […] (FIG. 1B). The nitroxide is considered to have performed a “superoxide oxidase”-like activity when it is converted to its hydroxylamine derivative in the presence of hemoglobin.
Knowing that under the experimental conditions described in FIGS. 1A and 1B the nitroxide is fully converted to hydroxylamine (See Equation [4]), the nitroxide may be regenerated by simply providing more superoxide anion as shown in Equation 5. […] This observation is consistent with the reconversion of the hydroxylamine derivative to nitroxide coupled with the formation of hydrogen peroxide from superoxide anion.

mice = conditions: cited from earlier work
[2] = tested on: Chinese Hamster V79 cells; assay: Radioprotection of Chinese Hamster V79 cells at 12 Gray; format: cell-based; conditions: 12 Gray x-ray; cells pretreated 10 minutes prior to irradiation
[3] = EPR signal of ^15N-TEMPOL in isolated ischemic rat heart; conditions: 2 mM TPL
Description: The solid lines are double-exponential fittings to the observed intensity data. The half-lives are 0.4 minutes, 2.9 minutes (▪), and 3.3 minutes, 30.1 minutes (●) respectively.
Using methods essentially as described in Kuppusamy et al. Proc. Natl. Act. Sci., USA Vol. 91, pgs.
In an EPR imaging study, the rat heart was perfused with a solution containing nitroxide with or without polynitroxide albumin, followed by cessation of perfusate flow in order to create ischemia. […] It can be seen the signal intensity undergoes a biphasic decay and that the presence of polynitroxide albumin greatly slows the decay. By thus stabilizing the TEMPOL signal, polynitroxide albumin allows high-quality EPR images to be obtained over a prolonged period of time. Referring to FIGS. 22-23, a three-dimensional EPR image of the ischemic heart can still be obtained after 156 minutes of global ischemia. […] This illustrates that the presence of PNA allows much better imaging than is possible with TEMPOL alone, in terms both of resolution and signal persistence.
In FIG. 24, the intensity of the EPR signal is shown as a function of the duration of ischemia. In the lower curve, 2 mM of TEMPOL is infused into an ischemic heart. The upper curve traces the original intensity of 2 mM TEMPOL together with a polynitroxide albumin (4 g/dl of albumin at 42 moles of TEMPOL per mole of albumin). […]

C57 mice = assay: 30-day survival of C57 mice after 10 Gray irradiation; format: in vivo; conditions: TPL 200 mg/kg ip, PNA 0.5 ml/mouse iv where given, 10 mice per group
[4] = Rat plasma TPL after intravenous injection (EPR spin density); format: in vivo; conditions: 100 mM solution, 10% v/v top load
Description: FIG. 14 is a plot showing time dependence of rat plasma concentrations of TPL after intravenous injections. Plasma samples were obtained from rats described in FIG. 13. TPL concentrations were determined from EPR spin density measurements.

in vivo = conditions: iv
C3H mice = conditions: cited from earlier work
conscious rats = assay: Mean arterial pressure response in conscious rats
Description: The rats were allowed to recover from surgery and anesthesia for approximately 7 days prior to study.
The rats were allowed to recover from surgery and anesthesia for approximately seven days prior to study.

[5] = Plasma levels of TPL with or without PNA in C57 mice (EPR); conditions: TPL 275 mg/kg ip alone
[6] = In vivo EPR of mouse skin: intradermal PNA and intravenous ^15N-TPL
Description: Thirty minutes later the spectrum in (C) was recorded.
The intensity of the low field ^15N-TPL peak is plotted against time. […].
FIGS. 42A and 42B show the pharmacokinetics of intravenous ^15N-TPL (1% v/w) measured at a patch of skin on the abdomen of the mouse.
A custom-built bridged loop-gap surface resonator, absorption microwave bridge was used for in vivo EPR spectroscopy at 1.25 GHz (L-band) in the mouse. […] The anesthetized mouse was placed in a ‘sandwich’ of two templates which allowed it to be placed on the loop-gap surface resonator, absorption microwave bridge in either the supine position, for spectroscopy of the back of the head, or in the prone position for spectroscopy of the abdomen. A tail vein cannula was used for intravenous injection of ^15N-TEMPOL; this injection site was remote from the resonator.
The spectrum was made 1 minute after ^15N-TPL was injected via the tail vein. […] FIG. 40B was recorded at approximately ⅕ of the instrument gain used in FIG. 40A in order to accommodate the ^15N-TPL signal.

[7] = In vivo ESR of mouse tail after iv nitroxide-labelled HBOC plus ^15ND17-TEMPOL; conditions: 0.5 ml iv via cannula
Description: FIG. 7A is the ESR spectrum of the nitroxide signal recorded from the mouse tail approximately 10 minutes after intravenous infusion of 0.5 ml of the sample shown in FIG. 6. FIG. 7B is the time dependent (scan time 30 minutes) decrease in the center peak (Mo) signal intensity of FIG. 7A recorded at 10 times of the instrument sensitivity. FIG. 7C is a continuation of FIG. 7B at the end of its scan.
FIG. 8A is a series of 5 ESR spectrum recorded at 0.5 minute intervals, the magnetic field strength was increased by 2 Gauss in between each scan to display the decrease in signal intensity as a function of time. […]
The separation of the resonance peaks permits the simultaneous monitoring of free radical or enzyme mimic activities involving the small molecular weight nitroxide (TEMPOL) and its macromolecular conjugate in both in vitro and in vivo (murine) reactions. […] First, the approximate plasma half-life of a small molecular weight nitroxide (^15ND17-TEMPOL see FIG. 4C) and a large molecular weight 4-(2-bromoacetamido)-TEMPOL-labelled HBOC (see FIG. 4B) are determined by preparing a mixture of the two and adjusting the ESR signal intensity to be approximately the same (see FIG. 6). […] The mouse tail was inserted into an ESR cavity and the spectrum was recorded within 10 minutes after injection (see FIG. 7A). […]

[8] = tested on: leukocyte rolling and adhesion to endothelial cells; assay: Cigarette smoke induced leukocyte rolling, adhesion and aggregate formation, dorsal skinfold chamber; format: in vivo, Syrian Golden hamsters
Text: The interactions of leukocytes with endothelial cells and platelets are an indicator of the microcirculatory response to several adverse physiological conditions, ranging from localized and systemic ischemia/reperfusion injury, rejection of organ grafts, and the response to the organism to various oxidizing novae. See also Lehr et al., PNAS, […]. The mediator role of reactive oxygen species has been documented in many in vitro and in vivo models and, as a consequence, antioxidants and radical scavengers have been applied to counteract leukocyte activation, aggregation, and adhesion to endothelium and the subsequent microcirculatory dysfunction.

**Q.** For “4-amino-TEMPO labelled o-raffinose polymerized hemoglobin: o-raffinose polymerized hemoglobin labelled with 4-amino-TEMPO”, which “nitroxide signal after storage of sample diluted with equal volume of unlabelled hemoglobin” value ([1]; 30 days of cold storage at 4° C.) is on record?
**A.** partially regenerated

**Q.** What about the “ESR resonance peaks after storage (conversion of nitroxide to hydroxylamine)” value ([1]; oxygenated, sealed glass container, 30 days at 4° C.) of the same molecule?
**A.** complete disappearance of the resonance peaks

**Q.** Which LD50 (mice; mice, intraperitoneal) does the source give for `CC1(C)CCCC(C)(C)N1[O]` [TEMPO, 2,2,6,6 tetramethylpiperidine-1-oxyl] here?
**A.** 341 mg/kg

**Q.** And the “maximum tolerated intraperitoneal dose” value (mice; mice)?
**A.** 275 mg/kg

**Q.** Which “surviving fraction of V79 cells” value [2] does the source give for `CC1(C)CC(O)CC(C)(C)N1O` [TPH] here?
**A.** 2%

**Q.** What does the source list for `CC1(C)CC(O)CC(C)(C)N1[O]` [TPL, 4-hydroxy-2,2,6,6-tetramethylpiperidine-1-oxyl]?
**A.** half-life at 2 mM ([3]; read-out: half-life of EPR signal, first phase of double-exponential fit): 0.4 min; half-life at 2 mM ([3]; read-out: half-life of EPR signal, second phase of double-exponential fit): 2.9 min; 30-day survival (C57 mice): 10%; half-life [4]: < 1 min; time to maximum peak intensity in mouse tail (repeat iv injection of TEMPOL): approximately 10 seconds; half-life (in vivo; C57, mouse): ~0.833 min; half-life (in vivo; mouse): ~2 min; maximal tolerated dose administered intraperitoneally (mice; C3H mice): 275 mg/kg; maximal TPL levels in whole blood (C3H mice; 275 mg/kg ip, 5-10 minutes after injection): ~150 µg/mL; dose of radiation at which 50% of treated mice die within 30 days (C3H mice; TPL 275 mg/kg ip 5-10 minutes before whole body radiation): 9.97 Gray; vasodilatory effect (conscious rats; 10% v/v top load, PNA 5 g/dl, TPL 100 mM): no significant vasodilatory effect; antihypertensive effect when injected alone with HBOC (conscious rats; conscious rats): no antihypertensive effect; maximum plasma level of TPL relative to ~100 mg/kg ip in the presence of PNA [5]: approximately one-fifth

**Q.** What does the source list for `CC1(C)CC(O)CC(C)(C)[15N]1[O]` [^15N-TPL]?
**A.** local half-life in skin ([6]; abdomen skin, absence of intradermal PNA): 0.5 min; time the increased ^15N-TPL signal was maintained ([6]; abdomen skin, after intradermal injection of 100 μl PNA): at least 30 minutes; decay of ^15N-TPL to ^15N-TPH ([6]; absence of intradermal PNA): complete; time to maximum ^15N-TPL signal after tail vein injection ([6]; measured at site of intradermal PNA injection on the back): less than 2 minutes; residual steady-state level as share of the initial ^15N-TPL concentration ([6]; site of intradermal PNA injection, assuming complete distribution in total body water): 17%; time the ^15N-TPL signal remained stable ([6]; skin on the back, in the presence of intradermal PNA): at least 30 minutes; plasma half-life (reduction to TPH) (mouse, 0.5 ml of 40 mM iv, no PNA): 2 min

**Q.** For `[2H]C([2H])([2H])C1(C([2H])([2H])[2H])[15N]([O])C(C([2H])([2H])[2H])(C([2H])([2H])[2H])C([2H])([2H])C([2H])(O)C1([2H])[2H]` [^15ND17-TEMPOL], which “time to disappearance of ESR signal after injection” value [7] is on record?
**A.** ≤ 2.5 min

**Q.** Which results are given for “Hemoglobin-based oxygen carrier (HBOC), DBBF-Hb: purified hemoglobin cross-linked with bis(3,5 dibromosalicyl)fumarate”?
**A.** aggregate formation ([8]; 15 MINUTES): 3.0 ± 1.7 /30 sec; arteriolar sticking ([8]; 15 MINUTES): 31.9 ± 26.4 /mm^2; venular rolling ([8]; 15 MINUTES): 7.9 ± 2.8%; venular sticking ([8]; 15 MINUTES): 66.0 ± 43.2 /mm^2; aggregate formation ([8]; 60 MINUTES): 4.5 ± 2.6 /30 sec; arteriolar rolling ([8]; 60 MINUTES): 3.8 ± 2.9 /mm; arteriolar sticking ([8]; 60 MINUTES): 42.0 ± 32.1 /mm^2; venular rolling ([8]; 60 MINUTES): 9.2 ± 3.8%; venular sticking ([8]; 60 MINUTES): 101.5 ± 76.9 /mm^2; aggregate formation ([8]; BASELINE): 0.3 ± 0.5 /30 sec; arteriolar rolling ([8]; BASELINE): 0.3 /mm; arteriolar sticking ([8]; BASELINE): 0.0 /mm^2; venular rolling ([8]; BASELINE): 5.8 ± 1.2%; venular sticking ([8]; BASELINE): 0.0 ± 0.0 /mm^2; leukocyte activation ([8]; cigarette smoke, compared with saline-treated controls): no effect
